# Measurements as given in ChEMBL document CHEMBL4651402, “Screening of ~5500 FDA-approved drugs and clinical candidates for anti-SARS-CoV-2 activity” (2021).
# Test system: SARS-CoV-2
# Experiment: microbe, parasite or virus in culture
# Details: Severe acute respiratory syndrome coronavirus 2, Vero C1008, 48 h
Structure (SMILES),IC50 [µM],IC50 (read-out: pIC50 (converted)) [µM]
Cc1cc(Nc2ncnc3ccc(-c4ccc(CNCCS(C)(=O)=O)o4)cc23)ccc1Oc1ccn2ncnc2c1,> 20,> 20
CC(=O)OCC(=O)[C@@]1(O)CC[C@H]2[C@@H]3CCC4=CC(=O)CC[C@]4(C)C3(F)[C@@H](O)C[C@@]21C (stereo not given in full),> 20,> 20
CC(C)(O)c1ccn2c(-c3ccc(F)c(-c4ccc(F)cc4C#N)c3)cnc2c1F,> 20,> 20
COC(=O)C1=C(CN2CC(F)(F)C[C@H]2C(=O)O)NC(c2nccs2)=N[C@@]1(C)c1ccc(F)cc1,> 20,> 20
CN1CCC2=C[C@H](O)[C@H]3OC(=O)c4cc5c(cc4[C@H]3[C@@H]21)OCO5,> 20,> 20
C=C1C(=O)O[C@@H]2[C@H]3O[C@]3(C)CC/C=C(\C)CC[C@@H]12,> 20,> 20
C[C@]1(O)CCC2C3CC[C@H]4CC(=O)/C(=C/O)C[C@]4(C)C3CC[C@@]21C (stereo not given in full),> 20,> 20
CCN1C[C@]2(C)CC[C@H](O)[C@@]34[C@@H]5C[C@H]6[C@H](O)[C@@H]5[C@](O)(C[C@@H]6OC)[C@@H](C[C@H]23)[C@H]14,> 20,> 20
COc1ccc2c3c1O[C@H]1[C@@H](O)C=C[C@H]4C(C2)N(C)CCC341 (stereo not given in full),> 20,> 20
CO[C@H]1C(O)C[C@H](O[C@H]2C(O)C[C@H](O[C@H]3C(O)C[C@H](OC4CC[C@@]5(C)C(CCC6C5CC(O)[C@]5(C)[C@@H](C7=CC(=O)OC7)CCC65O)C4)OC3C)OC2C)OC1C (stereo not given in full),> 20,> 20
OC[C@H]1O[C@@](O)(CO)[C@@H](O)[C@@H]1O,> 20,> 20
C[N+](C)(C)CCOP(=O)([O-])OC[C@@H](O)CO,> 20,> 20
C[C@H]1CN([C@H]2CC[C@](C#N)(c3ccc(F)cc3)CC2)CC[C@]1(C(=O)O)c1ccccc1,> 20,> 20
CNC(=O)[C@H]1O[C@@H](n2cnc3c(NCc4cccc(I)c4)ncnc32)[C@@H](O)[C@H]1O,> 20,> 20
C[C@@](O)(COc1ccc(C#N)cc1)C(=O)Nc1ccc(C#N)c(C(F)(F)F)c1,> 20,> 20
CC12C=CC(=O)C=C1CCC1C2C(O)CC2(C)C1CC[C@]2(O)C(=O)COC(=O)CCC(=O)O (stereo not given in full),> 20,> 20
CCC(CC)[C@@H](c1ccc(Nc2nc3ccccc3s2)cc1)n1cncn1,> 20,> 20
CCN(CC)CC(C)OC(=O)[C@H]1CCCC[C@]1(O)C1CCCCC1 (stereo not given in full),> 20,> 20

Structure (SMILES),IC50 [µM],IC50 (read-out: pIC50 (converted)) [µM]
CC12C=CC(=O)C=C1CCC1C3CC4Cc5ccccc5CC4(C(=O)CO)C3(C)CC(O)C12F (stereo not given),> 20,> 20
CC1(O)CCOC(=O)C1 (stereo not given),> 20,> 20
[O-][n+]1cccc(C(Cl)=NOC[C@H](O)CN2CCCCC2)c1,> 20,> 20
C=C[C@@]1(C)CC(=O)[C@@]2(O)[C@](C)(O1)[C@@H](OC(C)=O)[C@@H](OC(=O)CCN(C)C)C1C(C)(C)CC[C@H](O)[C@@]12C (stereo not given in full),> 20,> 20
CN1CC[C@@]23CCCC[C@@H]2C1Cc1ccc(O)cc13,> 20,> 20
CC(C)C1NC(=O)[C@@H](C(C)C)OC(=O)[C@H](C(C)C)NC(=O)[C@H](C)OC(=O)[C@@H](C(C)C)NC(=O)[C@@H](C(C)C)OC(=O)[C@H](C(C)C)NC(=O)[C@H](C)OC(=O)[C@@H](C(C)C)NC(=O)[C@@H](C(C)C)OC(=O)[C@H](C(C)C)NC(=O)[C@H](C)OC1=O (stereo not given in full),> 20,> 20
CC(=O)N[C@@H](CC(N)=O)C(=O)O,> 20,> 20
C/C=C(\C)C(=O)OC1C(OC(C)=O)C2(CO)C(O)CC3(C)C(=CCC4C5(C)CCC(OC6OC(C(=O)O)C(OC7OC(CO)C(O)C(O)C7O)C(O)C6OC6OC(CO)C(O)C(O)C6O)C(C)(CO)C5CCC43C)C2CC1(C)C (stereo not given),> 20,> 20
COc1cccc(N2CCN(C3=Nc4c(F)cccc4C(CC(=O)O)N3c3cc(C(F)(F)F)ccc3OC)CC2)c1 (stereo not given),> 20,> 20
CCCc1ccc(C(=O)O)nc1,> 20,> 20
C=C1[C@@H](O)C2/C=C\C[C@H](C)C(=O)[C@](C)(O)/C=C/[C@@H](OC(C)=O)[C@]23C(=O)N[C@H](Cc2ccccc2)[C@@H]3[C@@H]1C (stereo not given in full),> 20,> 20
C[C@@H]1CC[C@@]2(OC1)OC1CC3C4CC[C@H]5CC(O)CC[C@]5(C)C4CC[C@]3(C)C1[C@@H]2C (stereo not given in full),> 20,> 20
CCOC(=O)c1ccc(OCCC2CCN(c3ccc(C)nn3)CC2)cc1,> 20,> 20
CCC(=O)N(c1ccc(Cl)c(Cl)c1)[C@@H]1CCC[C@H]1N(C)C,> 20,> 20
CC/C=C/C/C=C/C/C=C/C/C=C/C/C=C/CCCC(=O)O,> 20,> 20
CN(C)CCOCC(=O)NC12CC3CC(CC(C3)C1)C2,> 20,> 20
CC(=O)c1ccc2c(c1)[C@@H]1C=CC[C@@H]1[C@H](c1cc3c(cc1Br)OCO3)N2,> 20,> 20
